Reference: patent publication US11000033B2, “Ketone or oxime compound, and herbicide” (NISSAN CHEMICAL CORPORATION, priority 2014, dated 2021)

What was measured:
Format in all cases: in vivo
Monochoria vaginalis = experiment: Test Example 1: herbicidal activity, application before weed generation in submerged conditions (symbol C); details: application herbicide amount 320 g/ha
In short: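 Greenhouse growth at 25–30 °C lasted 3 weeks after treatment, when each weed was graded 0–5 by herbicidal ratio. Treatment was a diluted emulsion applied to the water surface of 4 cm-submerged alluvial soil on the sowing day.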

Scirpus juncoides = experiment: Test Example 2: herbicidal activity, application during weed generation in submerged conditions (symbol B); details: Table 23; application herbicide amount 320 g/ha; grade 0-5 by criteria of Test Example 1
In short: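 Scoring of herbicidal effect took place 3 weeks after treatment, using the criteria of the earlier test. Treatment was water-surface application of diluted emulsifiable compound at a set dose. Plants were at one- to two-leaf stage in submerged alluvial soil (4 cm depth), greenhouse 25-30° C.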

[1] = system: Echinochloa crus-galli var. crus-galli; experiment: Test Example 3: herbicidal effect by foliage application, Wagner pot (symbol H); details: application herbicide amount 320 g/ha
In short: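 Foliar spray of a water-diluted emulsion at a predetermined herbicide amount, applied to 14-day-old plants. Seedlings were raised in flooded alluvial soil (0.1–0.5 cm water) at 25–30 °C in a greenhouse. Injury was rated after 3 weeks against fixed criteria.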

[2] = system: directly sowed rice plant; experiment: Test Example 3: effect on crop by foliage application, Wagner pot (symbol b); details: application herbicide amount 320 g/ha
In short: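 Alluvial soil in a 1/10000-are Wagner pot was flooded to a water depth of 0.1–0.5 cm. Echinochloa crus-galli var. crus-galli, Leptochloa chinensis, Cyperus difformis and rice were sown into it and grown in a greenhouse at 25–30 °C.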

Galium spurium = experiment: Test Example 4: herbicidal effect by soil treatment (symbol Q); details: application herbicide amount 320 g/ha
In short: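 Seeds were sown in sterilized diluvial soil, covered with about 1.5 cm of soil, and the soil surface was sprayed with a water-diluted emulsion of the compound at a predetermined rate. Plants grew in a greenhouse at 25° C. to 30° C.; effects were scored visually 3 weeks after application.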

Avena fatua = experiment: Test Example 5: herbicidal effect by foliage application, plastic box (symbol I); details: 320 g/ha, 3 weeks after application
In short: (§1)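 Greenhouse foliar test: seedlings at 14 days, grown 25° C. to 30° C. in sterilized diluvial soil; compound applied as an aqueous dilution of an emulsion; response read 3 weeks after spraying.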

Veronica persica = experiment: Test Example 5: herbicidal effect by foliage application, plastic box (symbol R); details: 320 g/ha, 3 weeks after application
In short: as §1

soybean = experiment: Test Example 5: effect on crop by foliage application, plastic box (symbol d); details: 320 g/ha, 3 weeks after application
In short: (§2)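 Greenhouse test at 25° C. to 30° C. Seeds of crops and weeds were spot-sown in boxes of sterilized diluvial soil under roughly 1.5 cm soil cover, then grown for foliage treatment.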

rapeseed = experiment: Test Example 5: effect on crop by foliage application, plastic box (symbol g); details: 320 g/ha, 3 weeks after application
In short: as §2

beet = experiment: Test Example 4: effect on crop by soil treatment (symbol f)
In short: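 Sterilized diluvial soil, spot sowing, ~1.5 cm soil cover; greenhouse 25–30° C.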

[3] = application herbicide amount 320 g/ha

Q: CON=C(C)CC1CC(OC(=O)OC)=C(c2c(C)cc(C)cc2C)C1=O (stereo not drawn) [1-014] was tested. Which “Herbicidal effect grade, C: Monochoria vaginalis” value (“Herbicidal effect grade, C” below) (Monochoria vaginalis) did it give?
A: 2 (Herbicidal ratio of 20% or higher and lower than 40%)

Q: What about the “Herbicidal effect grade, B: Scirpus juncoides” value (“Herbicidal effect grade, B” for short) (Scirpus juncoides) of the same molecule?
A: 3 (Herbicidal ratio of 40% or higher and lower than 70%)

Q: What about the “herbicidal effect on H (Echinochloa crus-galli var. crus-galli), grade 0-5” value (“herbicidal effect on H” for short) [1] of the same molecule?
A: 5 (Herbicidal ratio of 90% or more (almost completely withered))

Q: And the “effect on crop b (directly sowed rice plant), grade 0-5” value (“effect on crop b” below) [2]?
A: 5 (Herbicidal ratio of 90% or more (almost completely withered))

Q: What about the “Q (Galium spurium) herbicidal effect grade” value (Galium spurium) of the same molecule?
A: 5 (Herbicidal ratio of 90% or more (almost completely withered))

Q: And the “I: Avena fatua, herbicidal effect grade” value (Avena fatua)?
A: 5 (Herbicidal ratio of 90% or more (almost completely withered))

Q: What about the “R: Veronica persica, herbicidal effect grade” value (Veronica persica) of the same molecule?
A: 3 (Herbicidal ratio of 40% or higher and lower than 70%)

Q: And the “d: soybean, effect on crop grade” value (soybean)?
A: 5 (Herbicidal ratio of 90% or more (almost completely withered))

Q: What about the “g: rapeseed, effect on crop grade” value (rapeseed) of the same molecule?
A: 4 (Herbicidal ratio of 70% or higher and lower than 90%)

Q: CON=C(C)CC1CC(OC(=O)c2ccc(C(F)(F)F)cc2)=C(c2c(C)cc(C)cc2C)C1=O (stereo not drawn) [1-149] was tested. Which “Herbicidal effect grade, C” value (Monochoria vaginalis) did it give?
A: 1 (Herbicidal ratio of 5% or higher and lower than 20%)

Q: And the “Herbicidal effect grade, B” value (Scirpus juncoides)?
A: 4 (Herbicidal ratio of 70% or higher and lower than 90%)

Q: What about the “herbicidal effect on H” value [1] of the same molecule?
A: 5 (Herbicidal ratio of 90% or more (almost completely withered))

Q: And the “effect on crop b” value [2]?
A: 5 (Herbicidal ratio of 90% or more (almost completely withered))

Q: And the “f: beet, effect grade on crop” value (beet; 320 g/ha)?
A: 0 (Herbicidal ratio of 5% or lower (almost no effect))

Q: What about the “I: Avena fatua, herbicidal effect (criteria 0-5)” value (Avena fatua) of the same molecule?
A: 5 (Herbicidal ratio of 90% or more (almost completely withered))

Q: And the “R: Veronica persica, herbicidal effect (criteria 0-5)” value (Veronica persica)?
A: 2 (Herbicidal ratio of 20% or higher and lower than 40%)

Q: And the “d: soybean, effect on crop (criteria 0-5)” value (soybean)?
A: 2 (Herbicidal ratio of 20% or higher and lower than 40%)

Q: And the “g: rapeseed, effect on crop (criteria 0-5)” value (rapeseed)?
A: 4 (Herbicidal ratio of 70% or higher and lower than 90%)

Q: CON=C(C)CC1CC(OCC#N)=C(c2c(C)cc(C)cc2C)C1=O (stereo not drawn) [1-013] was tested. Which “Herbicidal effect grade, C” value (Monochoria vaginalis) did it give?
A: 0 (Herbicidal ratio of 5% or lower (almost no effect))

Q: And the “Herbicidal effect grade, B” value (Scirpus juncoides)?
A: 0 (Herbicidal ratio of 5% or lower (almost no effect))

Q: And the “herbicidal effect on H” value [1]?
A: 0 (Herbicidal ratio of 5% or lower (almost no effect))

Q: What about the “effect on crop b” value [2] of the same molecule?
A: 0 (Herbicidal ratio of 5% or lower (almost no effect))

Q: And the “f (beet) effect on crop grade” value (beet; [3])?
A: 0 (Herbicidal ratio of 5% or lower (almost no effect))

Q: What about the “I: Avena fatua, herbicidal effect grade” value (Avena fatua) of the same molecule?
A: 0 (Herbicidal ratio of 5% or lower (almost no effect))

Q: And the “R: Veronica persica, herbicidal effect grade” value (Veronica persica)?
A: 0 (Herbicidal ratio of 5% or lower (almost no effect))

Q: What about the “d: soybean, effect on crop grade” value (soybean) of the same molecule?
A: 0 (Herbicidal ratio of 5% or lower (almost no effect))

Q: And the “g: rapeseed, effect on crop grade” value (rapeseed)?
A: 4 (Herbicidal ratio of 70% or higher and lower than 90%)

Q: Which results are given for C=CC(=O)CC1CC(O)=C(c2c(C)cc(C)cc2C)C1=O (stereo not drawn) [2-031]?
A: Herbicidal effect grade, C: Monochoria vaginalis (Monochoria vaginalis): 2 (Herbicidal ratio of 20% or higher and lower than 40%); Herbicidal effect grade, B: Scirpus juncoides (Scirpus juncoides): 0 (Herbicidal ratio of 5% or lower (almost no effect)); herbicidal effect on H (Echinochloa crus-galli var. crus-galli), grade 0-5 [1]: 5 (Herbicidal ratio of 90% or more (almost completely withered)); effect on crop b (directly sowed rice plant), grade 0-5 [2]: 5 (Herbicidal ratio of 90% or more (almost completely withered)); f: beet, effect on crop grade (beet; [3]): 0 (Herbicidal ratio of 5% or lower (almost no effect)); I: Avena fatua, herbicidal effect grade (Avena fatua): 5 (Herbicidal ratio of 90% or more (almost completely withered)); R: Veronica persica, herbicidal effect grade (Veronica persica): 4 (Herbicidal ratio of 70% or higher and lower than 90%); d: soybean, effect on crop grade (soybean): 0 (Herbicidal ratio of 5% or lower (almost no effect)); g: rapeseed, effect on crop grade (rapeseed): 4 (Herbicidal ratio of 70% or higher and lower than 90%)

Q: How did the “Herbicidal effect grade, C” value (Monochoria vaginalis) turn out when CCc1cc(Br)cc(C)c1C1=C(O)CC(C(C(=O)OC)C(C)=NOC)C1=O (stereo not drawn) [6-002] was run?
A: 0 (Herbicidal ratio of 5% or lower (almost no effect))

Q: And the “Herbicidal effect grade, B” value (Scirpus juncoides)?
A: 0 (Herbicidal ratio of 5% or lower (almost no effect))

Q: And the “herbicidal effect on H” value [1]?
A: 4 (Herbicidal ratio of 70% or higher and lower than 90%)

Q: What about the “effect on crop b” value [2] of the same molecule?
A: 5 (Herbicidal ratio of 90% or more (almost completely withered))

Q: And the “f: beet, effect on crop grade” value (beet; [3])?
A: 0 (Herbicidal ratio of 5% or lower (almost no effect))

Q: What about the “I: Avena fatua, herbicidal effect grade” value (Avena fatua) of the same molecule?
A: 5 (Herbicidal ratio of 90% or more (almost completely withered))

Q: And the “R: Veronica persica, herbicidal effect grade” value (Veronica persica)?
A: 0 (Herbicidal ratio of 5% or lower (almost no effect))

Q: And the “d: soybean, effect on crop grade” value (soybean)?
A: 0 (Herbicidal ratio of 5% or lower (almost no effect))

Q: And the “g: rapeseed, effect on crop grade” value (rapeseed)?
A: 0 (Herbicidal ratio of 5% or lower (almost no effect))

Q: What does the source list for CON=C(C)CC1CC(O)=C(c2c(C)cc(C)cc2Br)C1=O (stereo not drawn) [6-038]?
A: Herbicidal effect grade, C: Monochoria vaginalis (Monochoria vaginalis): 3 (Herbicidal ratio of 40% or higher and lower than 70%); Herbicidal effect grade, B: Scirpus juncoides (Scirpus juncoides): 4 (Herbicidal ratio of 70% or higher and lower than 90%); herbicidal effect on H (Echinochloa crus-galli var. crus-galli), grade 0-5 [1]: 5 (Herbicidal ratio of 90% or more (almost completely withered)); effect on crop b (directly sowed rice plant), grade 0-5 [2]: 5 (Herbicidal ratio of 90% or more (almost completely withered)); f: beet, effect on crop grade (beet; [3]): 0 (Herbicidal ratio of 5% or lower (almost no effect)); I: Avena fatua, herbicidal effect grade (Avena fatua): 5 (Herbicidal ratio of 90% or more (almost completely withered)); R: Veronica persica, herbicidal effect grade (Veronica persica): 3 (Herbicidal ratio of 40% or higher and lower than 70%); d: soybean, effect on crop grade (soybean): 4 (Herbicidal ratio of 70% or higher and lower than 90%); g: rapeseed, effect on crop grade (rapeseed): 5 (Herbicidal ratio of 90% or more (almost completely withered))

Q: How did the “Herbicidal effect grade, C” value (Monochoria vaginalis) turn out when CC(=O)CC1CC(OC(=O)C(C)(C)C)=C(c2c(C)cc(C)cc2C)C1=O (stereo not drawn) [2-018] was run?
A: 1 (Herbicidal ratio of 5% or higher and lower than 20%)

Q: What about the “Herbicidal effect grade, B” value (Scirpus juncoides) of the same molecule?
A: 0 (Herbicidal ratio of 5% or lower (almost no effect))

Q: And the “herbicidal effect on H” value [1]?
A: 5 (Herbicidal ratio of 90% or more (almost completely withered))

Q: And the “effect on crop b” value [2]?
A: 5 (Herbicidal ratio of 90% or more (almost completely withered))

Q: What about the “f: beet, effect on crop grade” value (beet; [3]) of the same molecule?
A: 0 (Herbicidal ratio of 5% or lower (almost no effect))

Q: And the “I: Avena fatua, herbicidal effect grade” value (Avena fatua)?
A: 0 (Herbicidal ratio of 5% or lower (almost no effect))

Q: And the “R: Veronica persica, herbicidal effect grade” value (Veronica persica)?
A: 0 (Herbicidal ratio of 5% or lower (almost no effect))

Q: What about the “d: soybean, effect on crop grade” value (soybean) of the same molecule?
A: 0 (Herbicidal ratio of 5% or lower (almost no effect))

Q: And the “g: rapeseed, effect on crop grade” value (rapeseed)?
A: 0 (Herbicidal ratio of 5% or lower (almost no effect))

Q: C=Cc1cc(C)c(C2=C(O)CC(CC(C)=NOC)C2=O)c(C)c1 (mixture of isomers) [6-031] was tested. Which “Herbicidal effect grade, C” value (Monochoria vaginalis) did it give?
A: 0 (Herbicidal ratio of 5% or lower (almost no effect))

Q: And the “Herbicidal effect grade, B” value (Scirpus juncoides)?
A: 0 (Herbicidal ratio of 5% or lower (almost no effect))

Q: What about the “herbicidal effect on H” value [1] of the same molecule?
A: 3 (Herbicidal ratio of 40% or higher and lower than 70%)

Q: And the “effect on crop b” value [2]?
A: 4 (Herbicidal ratio of 70% or higher and lower than 90%)

Q: What about the “f: beet, effect on crop grade” value (beet; [3]) of the same molecule?
A: 0 (Herbicidal ratio of 5% or lower (almost no effect))

Q: What about the “I: Avena fatua, herbicidal effect grade” value (Avena fatua) of the same molecule?
A: 5 (Herbicidal ratio of 90% or more (almost completely withered))

Q: And the “R: Veronica persica, herbicidal effect grade” value (Veronica persica)?
A: 1 (Herbicidal ratio of 5% or higher and lower than 20%)

Q: What about the “d: soybean, effect on crop grade” value (soybean) of the same molecule?
A: 0 (Herbicidal ratio of 5% or lower (almost no effect))

Q: What about the “g: rapeseed, effect on crop grade” value (rapeseed) of the same molecule?
A: 3 (Herbicidal ratio of 40% or higher and lower than 70%)
